Source: patent US12678387B2, “Composition for alleviating hair loss or promoting hair growth” (LG HOUSEHOLD & HEALTH CARE LTD., priority 2020, dated 2026)

Key:
[1] = test system: Human-derived dermal papilla cells (DPCs); assay: Enhancement of activity of dermal papilla cells (CCK-8 method); format: cell-based; settings: for Activity of dermal papilla cells (%): incubated for a day, percentage of the control group as 100; for Effect on activity and proliferation of dermal papilla cells (in words): summary of Table 3
Protocol: Human-derived dermal papilla cells (DPCs) were purchased from PromoCell. The DPCs were cultured in DMEM (Hyclone Inc., UT, USA) containing 5% fetal bovine serum (FBS; GIBCO, NY, USA), 100 units/mL penicillin and 100 μg/mL streptomycin under the condition of 37° C. and 5% CO2. The cultured DPCs were seeded onto a 96-well plate at 3,000 cells/well and then cultured for 24 hours under a 0.1% serum condition. […] After the incubation, the enhancement of cellular activity was evaluated by the CCK method. The cell culture was treated and incubated with CCK-8 at 1:10 for 1 hour. 1 hour later, the absorbance of each well was measured at 450 nm. All the experiments were 3 times and the absorbance was averaged. The result was expressed as percentage of the control group as 100.

Wnt/β-catenin signaling = assay: Wnt/β-catenin luciferase reporter assay in Wnt Reporter HEK293A cells; format: cell-based; settings: for Wnt signaling activity for activating hair follicles (%): untreated group 100%; for Wnt signaling activity (in words): summary of Table 5
Excerpt: In general, the Wnt/β-catenin signaling activated in the dermal papillae during transition from the […] to the anagen transition in the hair growth cycle begins as the hair starts to grow and occurs throughout the anagen phase. In the telogen and catagen phases, the Wnt/β-catenin signaling decreases or disappears, resulting in degeneration of hair follicles and shedding of hair. Therefore, it was investigated in the examples how much the momordin Ic, platycodin D2, polygalacin D or pseudoginsenoside RT5 of the present disclosure contributes to the amplification of Wnt/β-catenin signaling.
Wnt3a protein was used as a positive control group for amplifying Wnt/β-catenin signaling, and DMSO was used as a negative control group. After seeding Wnt Reporter HEK293A cells in a 96-well culture plate, with 3×10^4 cells per well, and then treating with the momordin Ic, platycodin D2, polygalacin D or pseudoginsenoside RT5 of the present disclosure as described in Table 5, reporter assay was conducted using a Promega's luciferase assay kit (E1960). The experiment was conducted according to the manufacturer's instructions and the activity of the Wnt/β-catenin promoter was measured using a luminometer (Victor; PerkinElmer, Waltham, Massachusetts, USA).

[2] = test system: Human-derived dermal papilla cells (DPCs); assay: Enhancement of mitochondrial activity of dermal papilla cells (JC-1 method); format: cell-based; settings: for Mitochondrial activity of dermal papilla cells (%): incubated for a day, percentage of the control group as 100; for Effect on mitochondrial activity of dermal papilla cells (in words): summary of Table 4
Protocol: Human-derived dermal papilla cells (DPCs) were purchased from PromoCell. The DPCs were cultured in DMEM (Hyclone Inc., UT, USA) containing 5% fetal bovine serum (FBS; GIBCO, NY, USA), 100 units/mL penicillin and 100 μg/mL streptomycin under the condition of 37° C. and 5% CO2. The cultured DPCs were seeded onto a 96-well plate at 3,000 cells/well and then cultured for 24 hours under a 0.1% serum condition. […] After the incubation, the degree of cell proliferation was evaluated by the JC-1 method. The cell culture was treated and incubated with JC-1 at 1:100 for 1 hour. 1 hour later, the fluorescence of each well was measured at 590 nm and 530 nm. All the experiments were 3 times and the fluorescence intensity was averaged. The result was expressed as percentage of the control group as 100.

androgen receptor = assay: Androgenic activity: MMTV-Luc transcriptional activation assay in 22Rv1 cells with DHT; format: cell-based, human; settings: for Inhibition of androgenic activity (%): 10 μg/mL together with 1 nM DHT, 24 hours; for Effect of inhibiting androgenic activity (in words): summary of Table 6
Protocol: The stable cell line was maintained by subculturing using RPMI1640 and 10% fetal bovine serum (GIBCO BRL, Gaithersburg, MD, USA). For transcriptional activation assay, the cells were seeded in a 96-well plate, with 25,000 cells per well, while replacing the medium with phenol red-free RPMI1640 containing 5% charcoal-stripped fetal bovine serum. […] The cell culture was treated and incubated with CCK-8 at 1:10 for 2 hours. 2 hour later, the absorbance of each well was measured at 450 nm. All the experiments were 3 times and the absorbance was averaged.

| Compound | Activity of dermal papilla cells (%) ([1]; 10 μg/mL) | Effect on activity and proliferation of dermal papilla cells (in words) [1] | Wnt signaling activity for activating hair follicles (%) (Wnt/β-catenin signaling; 10 μg/mL) | Wnt signaling activity (in words) (Wnt/β-catenin signaling) | Mitochondrial activity of dermal papilla cells (%) ([2]; 10 μg/mL) | Effect on mitochondrial activity of dermal papilla cells (in words) [2] | Inhibition of androgenic activity (%) (androgen receptor) | Effect of inhibiting androgenic activity (in words) (androgen receptor) | Activity of dermal papilla cells (%) ([1]; 2 μg/mL) | Wnt signaling activity for activating hair follicles (%) (Wnt/β-catenin signaling; 2 μg/mL) | Mitochondrial activity of dermal papilla cells (%) ([2]; 2 μg/mL) |
| --- | --- | --- | --- | --- | --- | --- | --- | --- | --- | --- | --- |
| CC1(C)CC[C@]2(C(=O)O)CC[C@]3(C)C(=CC[C@@H]4[C@@]5(C)CC[C@H](O[C@@H]6O[C@H](C(=O)O)[C@@H](O)[C@H](O[C@@H]7OC[C@@H](O)[C@H](O)[C@H]7O)[C@H]6O)C(C)(C)[C@@H]5CC[C@]43C)[C@@H]2C1 [Momordin Ic, momordin Ic] | 148 | superior effect of enhancing the activity of dermal papilla cells | 370 | superior Wnt signaling activity | 120 | superior effect of enhancing the mitochondrial activity | 12 | – | – | – | – |
| C[C@@H]1O[C@@H](O[C@H]2[C@H](OC(=O)[C@]34CCC(C)(C)C[C@H]3C3=CC[C@@H]5[C@@]6(C)C[C@H](O)[C@H](O[C@@H]7O[C@H](CO)[C@@H](O)[C@H](O)[C@H]7O)[C@@](C)(CO)[C@@H]6CC[C@@]5(C)[C@]3(C)C[C@H]4O)OC[C@H](O)[C@@H]2O)[C@H](O)[C@H](O)[C@H]1O[C@@H]1OC[C@@H](O)[C@H](O[C@@H]2OC[C@](O)(CO)[C@H]2O)[C@H]1O [Polygalacin D, polygalacin D] | 164 | superior effect of enhancing the activity of dermal papilla cells | 293 | superior Wnt signaling activity | – | – | 26 | superior effect of inhibiting androgenic activity | – | – | – |
| CC(C)(O)[C@H]1CC[C@@](C)([C@H]2CC[C@]3(C)[C@@H]2[C@H](O)C[C@@H]2[C@@]4(C)CC[C@H](O)C(C)(C)[C@@H]4[C@@H](O[C@@H]4O[C@H](CO)[C@@H](O)[C@H](O)[C@H]4O)C[C@]23C)O1 [Pseudoginsenoside RT5, pseudoginsenoside RT5] | 141 | superior effect of enhancing the activity of dermal papilla cells | 120 | superior Wnt signaling activity | 112 | superior effect of enhancing the mitochondrial activity | 8 | – | – | – | – |
| C[C@@H]1O[C@@H](O[C@H]2[C@H](OC(=O)[C@]34CCC(C)(C)C[C@H]3C3=CC[C@@H]5[C@@]6(C)C[C@H](O)[C@H](O[C@@H]7O[C@H](CO)[C@@H](O)[C@H](O[C@@H]8O[C@H](CO)[C@@H](O)[C@H](O)[C@H]8O)[C@H]7O)C(CO)(CO)[C@@H]6CC[C@@]5(C)[C@]3(C)C[C@H]4O)OC[C@H](O)[C@@H]2O)[C@H](O)[C@H](O)[C@H]1O[C@@H]1OC[C@@H](O)[C@H](O[C@@H]2OC[C@](O)(CO)[C@H]2O)[C@H]1O [Platycodin D2, platycodin D2] | 162 | superior effect of enhancing the activity of dermal papilla cells | 216 | superior Wnt signaling activity | – | – | 16 | superior effect of inhibiting androgenic activity | – | – | – |
| C[C@@H]1O[C@@H](O[C@H]2[C@H](O[C@H]3[C@H](O[C@H]4CC[C@]5(C)[C@H]6CC=C7[C@@H]8CC(C)(C)CC[C@]8(C(=O)O)CC[C@@]7(C)[C@]6(C)CC[C@H]5C4(C)C)OC[C@H](O)[C@@H]3O)O[C@H](CO)[C@@H](O)[C@@H]2O)[C@H](O)[C@H](O)[C@H]1O [Raddeanin A, raddeanin A] | 130 | superior effect of enhancing the activity of dermal papilla cells | – | – | – | – | 10 | – | – | – | – |
| asiaticoside B | 131 | superior effect of enhancing the activity of dermal papilla cells | – | – | 151 | superior effect of enhancing the mitochondrial activity | 6 | – | – | – | – |
| C[C@@H]1CC[C@]2(C(=O)O)CC[C@]3(C)C(=CC[C@@H]4[C@@]5(C)CC[C@H](O[C@@H]6OC[C@H](O)[C@H](O)[C@H]6O)C(C)(C)[C@@H]5CC[C@]43C)[C@@H]2[C@]1(C)O [Ziyuglycoside II, ziyuglycoside II] | 139 | superior effect of enhancing the activity of dermal papilla cells | – | – | 105 | superior effect of enhancing the mitochondrial activity | – | – | – | – | – |
| Nc1cc(N2CCCCC2)nc(N)[n+]1[O-] [Minoxidil, 2,4-diamino-6-piperidinopyrimidine 3-oxide, reference compound] | – | – | – | – | – | – | – | – | 121 | 82 | 129 |
| CC(C)=CCC[C@](C)(O)[C@H]1CC[C@]2(C)[C@@H]1[C@H](O)C[C@@H]1[C@@]3(C)CC[C@H](O)C(C)(C)[C@@H]3[C@@H](O[C@@H]3O[C@H](CO)[C@@H](O)[C@H](O)[C@H]3O[C@@H]3OC[C@@H](O)[C@H](O)[C@H]3O)C[C@]12C [Notoginsenoside R2, notoginsenoside R2] | 131 | superior effect of enhancing the activity of dermal papilla cells | – | – | 117 | superior effect of enhancing the mitochondrial activity | 29 | superior effect of inhibiting androgenic activity | – | – | – |
| CC(C)=C[C@@H]1CO[C@]23C[C@@]4(CO2)[C@@H](CC[C@@H]2[C@@]5(C)CC[C@H](O[C@H]6OC[C@H](O)[C@H](O[C@H]7O[C@H](COS(=O)(=O)O)[C@@H](O)[C@H](O)[C@H]7O)[C@H]6O[C@@H]6O[C@@H](CO)[C@H](O)[C@H]6O)C(C)(C)[C@@H]5CC[C@]24C)[C@H]3[C@@]1(C)O [Bacopaside I, bacopaside I] | 133 | superior effect of enhancing the activity of dermal papilla cells | – | – | 110 | superior effect of enhancing the mitochondrial activity | 6 | – | – | – | – |
| CC(C)=CCC[C@](C)(O[C@@H]1O[C@H](CO)[C@@H](O)[C@H](O)[C@H]1O)[C@H]1CC[C@]2(C)[C@@H]1[C@H](O)C[C@@H]1[C@@]3(C)CC[C@H](O[C@@H]4O[C@H](CO)[C@@H](O)[C@H](O)[C@H]4O[C@@H]4O[C@H](CO)[C@@H](O)[C@H](O)[C@H]4O)C(C)(C)[C@@H]3[C@@H](O)C[C@]12C [Vina-ginsenoside R4, vina-ginsenoside R4] | 137 | superior effect of enhancing the activity of dermal papilla cells | – | – | 111 | superior effect of enhancing the mitochondrial activity | 4 | – | – | – | – |
| CC(C)C1=CC(=O)C(C)(C2C(O)CC3(C)C4CC=C5C(CCC(OC6OC(CO)C(O)C(O)C6OC6OC(C)C(O)C(O)C6O)C5(C)C)C4(C)C(=O)CC23C)O1 (centres unmarked) [Picfeltarraenin IB, picfeltarraenin IB] | 139 | superior effect of enhancing the activity of dermal papilla cells | – | – | – | – | – | – | – | – | – |
